Molecular target: CDK2/Cyclin E1 (Homo sapiens (Human), UniProt P24941)
Test: CDK2/Cyclin E1 HTRF enzyme activity assay
Format: biochemical
Settings: 1 mM ATP
Procedure: Assays are conducted in white 384-well polystyrene plates in a final reaction volume of 8 μL. […] HTRF signals are read after 1 hour at room temperature on a PHERAstar FS plate reader (BMG Labtech). Data is analyzed with IDBS XLFit and GraphPad Prism 5.0 software using a three or four parameter dose response curve to determine IC50 for each compound.

| IC50 [nM] | Compound |
| --- | --- |
| < 50 | CCS(=O)(=O)N1CCC(Nc2ncc(C#N)c(-c3cnn(-c4ccc(CNc5cnn(C)c5)cc4Cl)c3)n2)CC1 [Example 165, 4-(1-(2-Chloro-4-(((1-methyl-1H-pyrazol-4-yl)amino)methyl)phenyl)-1H-pyrazol-4-yl)-2-((1-(ethylsulfonyl)piperidin-4-yl)amino)pyrimidine-5-carbonitrile] |
| < 50 | CNCc1ccc(-n2cc(-c3nc(N[C@H]4CCN(S(=O)(=O)c5cn(C)cn5)C[C@H]4C)ncc3C#N)cn2)c(C)n1 [Example 272, 2-(((3R,4S)-3-Methyl-1-((1-methyl-1H-imidazol-4-yl)sulfonyl)piperidin-4-yl)amino)-4-(1-(2-methyl-6-((methylamino)methyl)pyridin-3-yl)-1H-pyrazol-4-yl)pyrimidine-5-carbonitrile] |
| < 50 | CS(=O)(=O)N1CCC(Nc2ncc(C#N)c(-c3cnn(-c4ccc(CN[C@]5(C)C[C@H](O)C5)cc4Cl)c3)n2)CC1 [Example 158, 4-(1-(2-Chloro-4-((((1s,3s)-3-hydroxy-1-methylcyclobutyl)amino)methyl)phenyl)-1H-pyrazol-4-yl)-2-((1-(methylsulfonyl)piperidin-4-yl)amino)pyrimidine-5-carbonitrile] |
| < 50 | Cc1cc(CN2CCN(C)CC2)ccc1-n1cc(-c2nc(NC3CCN(S(=O)(=O)c4ccn(C)n4)CC3)ncc2Cl)cn1 [Example 110, 5-Chloro-N-(1-((1-methyl-1H-pyrazol-3-yl)sulfonyl)piperidin-4-yl)-4-(1-(2-methyl-4-((4-methylpiperazin-1-yl)methyl)phenyl)-1H-pyrazol-4-yl)pyrimidin-2-amine] |
| < 50 | CN(C)C1CCC(S(=O)(=O)N2CCC(Nc3ncc(C(F)(F)F)c(-c4cnn(CC(C)(C)O)c4)n3)CC2)CC1 (single isomer, unassigned) [88 (peak 2), 1-(4-(2-((1-((4-(Dimethylamino)cyclohexyl)sulfonyl)piperidin-4-yl)amino)-5-(trifluoromethyl)pyrimidin-4-yl)-1H-pyrazol-1-yl)-2-methylpropan-2-ol] |
| < 50 | CNCc1ccc(-n2cc(-c3nc(N[C@H]4CCN(S(=O)(=O)C(C)C)C[C@H]4F)ncc3C#N)cn2)c(Cl)c1 [Example 119, 4-(1-(2-Chloro-4-((methylamino)methyl)phenyl)-1H-pyrazol-4-yl)-2-(((3R,4S)-3-fluoro-1-(isopropylsulfonyl)piperidin-4-yl)amino)pyrimidine-5-carbonitrile] |
| < 50 | CS(=O)(=O)N1CCC(Nc2ncc(C#N)c(-c3cnn(-c4ccc(CNC5(CO)CC5)cc4Cl)c3)n2)CC1 [Example 159, 4-(1-(2-Chloro-4-(((1-(hydroxymethyl)cyclopropyl)amino)methyl)phenyl)-1H-pyrazol-4-yl)-2-((1-(methylsulfonyl)piperidin-4-yl)amino)pyrimidine-5-carbonitrile] |
| < 50 | CS(=O)(=O)N1CCC(Nc2ncc(C#N)c(-c3cnn(-c4ccc(CN[C@@H]5CCCOC5)cc4Cl)c3)n2)CC1 [Example 195, (R)-4-(1-(2-Chloro-4-(((tetrahydro-2H-pyran-3-yl)amino)methyl)phenyl)-1H-pyrazol-4-yl)-2-((1-(methylsulfonyl)piperidin-4-yl)amino)pyrimidine-5-carbonitrile] |
| < 50 | CNCc1ccc(-n2cc(-c3nc(NC4CCN(S(=O)(=O)c5cn(C)cn5)CC4)ncc3C#N)cn2)c(C)n1 [Example 126, 2-((1-((1-Methyl-1H-imidazol-4-yl)sulfonyl)piperidin-4-yl)amino)-4-(1-(2-methyl-6-((methylamino)methyl)pyridin-3-yl)-1H-pyrazol-4-yl)pyrimidine-5-carbonitrile] |
| < 50 | CCN(CC)CCCS(=O)(=O)N1CCC(Nc2ncc(C(F)(F)F)c(-c3cnn(CC(C)(C)O)c3)n2)CC1 [Example 64, 1-(4-(2-((1-((3-(Diethylamino)propyl)sulfonyl)piperidin-4-yl)amino)-5-(trifluoromethyl)pyrimidin-4-yl)-1H-pyrazol-1-yl)-2-methylpropan-2-ol] |
| 50 to 200 | Cc1nn(C2CCN(C)CC2)cc1-c1ccnc(NC2CCN(S(C)(=O)=O)CC2)n1 [Example 16, 4-(3-Methyl-1-(1-methylpiperidin-4-yl)-1H-pyrazol-4-yl)-N-(1-(methylsulfonyl)piperidin-4-yl)pyrimidin-2-amine] |
| < 50 | CNCc1ccc(-n2cc(-c3nc(NC4CCN(S(C)(=O)=O)CC4)ncc3Cl)cn2)c(Cl)c1 [Example 124, 5-Chloro-4-(1-(2-chloro-4-((methylamino)methyl)phenyl)-1H-pyrazol-4-yl)-N-(1-(methylsulfonyl)piperidin-4-yl)pyrimidin-2-amine] |
| < 50 | CS(=O)(=O)N1CCC(Nc2ncc(C#N)c(-c3cnn(-c4ccc(CN[C@H]5C[C@@](C)(O)C5)cc4Cl)c3)n2)CC1 [Example 190, 4-(1-(2-Chloro-4-((((1s,3s)-3-hydroxy-3-methylcyclobutyl)amino)methyl)phenyl)-1H-pyrazol-4-yl)-2-((1-(methylsulfonyl)piperidin-4-yl)amino)pyrimidine-5-carbonitrile] |
| < 50 | CC(C)(O)Cn1cc(-c2nc(NC3CCN(S(=O)(=O)CCCN4CCCCC4)CC3)ncc2C(F)(F)F)cn1 [Example 67, 2-Methyl-1-(4-(2-((1-((3-(piperidin-1-yl)propyl)sulfonyl)piperidin-4-yl)amino)-5-(trifluoromethyl)pyrimidin-4-yl)-1H-pyrazol-1-yl)propan-2-ol] |

The next lines start with the compound.

| Compound | IC50 [nM] |
| --- | --- |
| CC(C)(O)Cn1cc(-c2nc(NC3CCN(S(=O)(=O)CCCO)CC3)ncc2C(F)(F)F)cn1 [Example 92, 3-((4-((4-(1-(2-Hydroxy-2-methylpropyl)-1H-pyrazol-4-yl)-5-(trifluoromethyl)pyrimidin-2-yl)amino)piperidin-1-yl)sulfonyl)propan-1-ol] | < 50 |
| CNCc1ccc(-n2cc(-c3nc(N[C@H]4CCN(S(C)(=O)=O)C[C@H]4F)ncc3C#N)cn2)c(Cl)c1 [Example 116, 4-(1-(2-Chloro-4-((methylamino)methyl)phenyl)-1H-pyrazol-4-yl)-2-(((3R,4S)-3-fluoro-1-(methylsulfonyl)piperidin-4-yl)amino)pyrimidine-5-carbonitrile] | < 50 |
| Cc1nc(CN2CCN(C)CC2)ccc1-n1cc(-c2nc(N[C@H]3CCN(S(=O)(=O)c4cn(C)cn4)C[C@H]3C)ncc2C(F)(F)F)cn1 [Example 255, N-((3R,4S)-3-methyl-1-((1-methyl-1H-imidazol-4-yl)sulfonyl)piperidin-4-yl)-4-(1-(2-methyl-6-((4-methylpiperazin-1-yl)methyl)pyridin-3-yl)-1H-pyrazol-4-yl)-5-(trifluoromethyl)pyrimidin-2-amine] | < 50 |
| CCS(=O)(=O)N1CCC(Nc2ncc(C(F)(F)F)c(-c3cnn(C(C)(C)C(N)=O)c3)n2)CC1 [Example 97, 2-(4-(2-((1-(Ethylsulfonyl)piperidin-4-yl)amino)-5-(trifluoromethyl)pyrimidin-4-yl)-1H-pyrazol-1-yl)-2-methylpropanamide] | < 50 |
| Cc1cc(CN2CCNCC2)ccc1-n1cc(-c2nc(NC3CCN(S(=O)(=O)c4cn(C)cn4)CC3)ncc2C(F)(F)F)cn1 [Example 228, N-(1-((1-Methyl-1H-imidazol-4-yl)sulfonyl)piperidin-4-yl)-4-(1-(2-methyl-4-(piperazin-1-ylmethyl)phenyl)-1H-pyrazol-4-yl)-5-(trifluoromethyl)pyrimidin-2-amine] | < 50 |
| CC(C)(C(N)=O)n1cc(-c2nc(NC3CCN(S(=O)(=O)C4CC4)CC3)ncc2C(F)(F)F)cn1 [Example 98, 2-(4-(2-((1-(Cyclopropylsulfonyl)piperidin-4-yl)amino)-5-(trifluoromethyl)pyrimidin-4-yl)-1H-pyrazol-1-yl)-2-methylpropanamide] | < 50 |
| CCS(=O)(=O)N1CCC(Nc2ncc(C#N)c(-c3cnn(-c4ccc(CN[C@@H]5CCCC[C@@]5(C)O)cc4Cl)c3)n2)CC1 (racemic) [Example 287, (±)-4-(1-(2-Chloro-4-((((1r,2r)-2-hydroxy-2-methylcyclohexyl)amino)methyl)phenyl)-1H-pyrazol-4-yl)-2-((1-(ethylsulfonyl)piperidin-4-yl)amino)pyrimidine-5-carbonitrile] | < 50 |
| COC(=O)N1CCC[C@@H](NCc2ccc(-n3cc(-c4nc(NC5CCN(S(C)(=O)=O)CC5)ncc4C#N)cn3)c(Cl)c2)C1 [Example 168, Methyl (R)-3-((3-chloro-4-(4-(5-cyano-2-((1-(methylsulfonyl)piperidin-4-yl)amino)pyrimidin-4-yl)-1H-pyrazol-1-yl)benzyl)amino)piperidine-1-carboxylate] | < 50 |
| CC(=O)N1CC[C@H](NCc2ccc(-n3cc(-c4nc(NC5CCN(S(C)(=O)=O)CC5)ncc4C#N)cn3)c(Cl)c2)C1 [Example 169, (S)-4-(1-(4-(((1-Acetylpyrrolidin-3-yl)amino)methyl)-2-chlorophenyl)-1H-pyrazol-4-yl)-2-((1-(methylsulfonyl)piperidin-4-yl)amino)pyrimidine-5-carbonitrile] | < 50 |
| CC(=O)N1CC(NCc2ccc(-n3cc(-c4nc(NC5CCN(S(C)(=O)=O)CC5)ncc4C#N)cn3)c(Cl)c2)C1 [Example 171, 4-(1-(4-(((1-Acetylazetidin-3-yl)amino)methyl)-2-chlorophenyl)-1H-pyrazol-4-yl)-2-((1-(methylsulfonyl)piperidin-4-yl)amino)pyrimidine-5-carbonitrile] | < 50 |
| CS(=O)(=O)N1CCC(Nc2ncc(C(F)(F)F)c(-c3cnn([C@H]4CC[C@H](C#N)CC4)c3)n2)CC1 [Example 34, trans-4-(4-(2-((1-(Methylsulfonyl)piperidin-4-yl)amino)-5-(trifluoromethyl)pyrimidin-4-yl)-1H-pyrazol-1-yl)cyclohexane-1-carbonitrile] | < 50 |
| Cc1nc(CNC(C)C)ccc1-n1cc(-c2nc(N[C@H]3CCN(S(=O)(=O)c4cn(C)cn4)C[C@H]3C)ncc2C(F)(F)F)cn1 [Example 276, 4-(1-(6-((Isopropylamino)methyl)-2-methylpyridin-3-yl)-1H-pyrazol-4-yl)-N-((3R,4S)-3-methyl-1-((1-methyl-1H-imidazol-4-yl)sulfonyl)piperidin-4-yl)-5-(trifluoromethyl)pyrimidin-2-amine] | < 50 |
